According to patent publication US12576083B2, “Combinational therapy of LSD1 inhibitors with P21 activators in the treatment of cancer” (Istituto Europeo di Oncologia S.r.l., priority 2017, dated 2026):

System: p21
Assay: p21 expression in NB4 cells treated with HDAC inhibitors
Type: cell-based
Settings: with p21-shRNA or scramble shRNA
Procedure: FIGS. 9A-9C. […] (FIG. 9B) NB4 cells were infected with SCR (control) or P21 shRNA, and knockdown was monitored by qPCR. Values are normalized against GAPDH. (FIG. 9C) Monitoring of p21 expression upon the indicated treatments. (SCR=Scramble shRNA, NI=Not Infected, HDACi=HDAC inhibitor=SAHA or TSA).
NB4 cells were treated with HDAC inhibitors, trichostatin A (TSA) and suberoylanilide hydroxamic acid (SAHA), in combination with p21-shRNA or scramble shRNA (SCR). NB4 cells with p21 knock-down without HDAC inhibitor treatment (p21KD-DMSO), NB4 cells without p21 knock-down and without HDAC inhibitor treatment (Scr-DMSO), untreated UF1 cells (UF1-DMSO) were included as control.

**Q.** O=C(CCCCCCC(=O)Nc1ccccc1)NO [SAHA, suberoylanilide hydroxamic acid] was tested. Which “p21 expression in NB4 cells” value did it give?
**A.** The value was “induced p21 expression”.
